From patent US11000033B2, “Ketone or oxime compound, and herbicide” (NISSAN CHEMICAL CORPORATION, priority 2014, dated 2021)

Key:
Format in all cases: in vivo
[1] = test system: Echinochloa oryzacola Vasing.; experiment: Test Example 1: herbicidal activity, application before weed generation in submerged conditions (symbol A); conditions: application herbicide amount 320 g/ha
Outline: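 Compound emulsion was diluted to a set herbicide amount and applied to the water surface on the sowing day, into submerged (4 cm) alluvial-soil pots sown with mixed weed seeds and transplanted 2.5-leaf rice. Pots were held in a 25–30 °C greenhouse, and weeds were scored 0–5 by herbicidal ratio after 3 weeks.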

wheat [2] = experiment: Test Example 5: effect on crop by foliage application, plastic box (symbol e); conditions: 320 g/ha, 3 weeks after application
Outline: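 Seeds were sown in spots in sterilized diluvial soil held in a plastic box 21 cm × 13 cm × 7 cm deep, covered with about 1.5 cm of soil, and grown in a greenhouse at 25° C. to 30° C.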

Alopecurus myosuroides [3] = experiment: Test Example 5: herbicidal effect by foliage application, plastic box (symbol J); conditions: 320 g/ha, 3 weeks after application
Outline: (§1)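 Visual herbicidal score, taken three weeks post-application, of seedlings sprayed on the foliage with water-diluted emulsion at a predetermined amount; plants were 14 days old, greenhouse-raised at 25° C. to 30° C.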

Monochoria vaginalis = experiment: Test Example 2: herbicidal activity, application during weed generation in submerged conditions (symbol C); conditions: Table 23; application herbicide amount 320 g/ha; grade 0-5 by criteria of Test Example 1
Outline: (§2)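 Alluvial soil in pots was flooded to a 4 cm water depth and sown with a mix of the three weed species, then grown in a greenhouse at 25° C. to 30° C. At the one- to two-leaf stage, an emulsifiable formulation diluted in water to a set dose was applied to the water surface. Effects were scored visually 3 weeks later.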

[4] = test system: Echinochloa oryzacola Vasing.; experiment: Test Example 2: herbicidal activity, application during weed generation in submerged conditions (symbol A); conditions: Table 23; application herbicide amount 320 g/ha; grade 0-5 by criteria of Test Example 1
Outline: as §2

wheat [5] = experiment: Test Example 4: effect on crop by soil treatment (symbol e); conditions: application herbicide amount 320 g/ha
Outline: (§3)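 Steps: fill box with sterilized diluvial soil; sow seed spot-like; cover with ~1.5 cm soil; grow in greenhouse (25° C. to 30° C.).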

soybean = experiment: Test Example 4: effect on crop by soil treatment (symbol d); conditions: application herbicide amount 320 g/ha
Outline: as §3

[6] = test system: Echinochloa crus-galli var. crus-galli; experiment: Test Example 4: herbicidal effect by soil treatment (symbol H); conditions: application herbicide amount 320 g/ha
Outline: (§4)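 Seeds were sown in sterilized diluvial soil, covered with about 1.5 cm of soil, and the soil surface was sprayed with a water-diluted emulsion of the compound at a predetermined rate. Plants grew in a greenhouse at 25° C. to 30° C.; effects were scored visually 3 weeks after application.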

Amaranthus retroflexus = experiment: Test Example 5: herbicidal effect by foliage application, plastic box (symbol N); conditions: 320 g/ha, 3 weeks after application
Outline: as §1

Alopecurus myosuroides [7] = experiment: Test Example 4: herbicidal effect by soil treatment (symbol J); conditions: application herbicide amount 320 g/ha
Outline: as §4

Cyperus difformis = experiment: Test Example 3: herbicidal effect by foliage application, Wagner pot (symbol E); conditions: application herbicide amount 320 g/ha
Outline: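 Weeds and rice were sown in alluvial soil under 0.1–0.5 cm of standing water and grown for 14 days in a 25–30 °C greenhouse. An emulsion of the compound, diluted in water to a set dose, was sprayed evenly onto the foliage. Effect was scored against fixed criteria 3 weeks after treatment.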

beet = experiment: Test Example 4: effect on crop by soil treatment (symbol f); conditions: application herbicide amount 320 g/ha
Outline: as §3

Compound | Herbicidal effect grade, A: Echinochloa oryzacola Vasing. [1] | e: wheat, effect on crop grade (wheat [2]) | J: Alopecurus myosuroides, herbicidal effect grade (Alopecurus myosuroides [3]) | Herbicidal effect grade, C: Monochoria vaginalis (Monochoria vaginalis) | Herbicidal effect grade, A: Echinochloa oryzacola Vasing. [4] | e (wheat) effect on crop grade (wheat [5]) | d (soybean) effect on crop grade (soybean) | H (Echinochloa crus-galli var. crus-galli) herbicidal effect grade [6] | N: Amaranthus retroflexus, herbicidal effect grade (Amaranthus retroflexus) | J (Alopecurus myosuroides) herbicidal effect grade (Alopecurus myosuroides [7]) | herbicidal effect on E, grade 0-5 (Cyperus difformis) | Effect on crop grade, f: beet (beet) | e: wheat, effect on crop (criteria of Test Example 1) (wheat [2]) | J: Alopecurus myosuroides, herbicidal effect (criteria of Test Example 1) (Alopecurus myosuroides [3]) | Effect on crop grade, e: wheat (wheat [5]) | Effect on crop grade, d: soybean (soybean) | Herbicidal effect grade, H: Echinochloa crus-galli var. crus-galli [6] | N: Amaranthus retroflexus, herbicidal effect (criteria of Test Example 1) (Amaranthus retroflexus) | Herbicidal effect grade, J: Alopecurus myosuroides (Alopecurus myosuroides [7]) | E herbicidal effect grade (Cyperus difformis; Table 24)
CON=C(C)CC1CC(OC(=O)C2CC2)=C(c2c(C)cc(C)cc2C)C1=O (centres unmarked) [1-015] | 5 (Herbicidal ratio of 90% or more (almost completely withered)) | 5 (Herbicidal ratio of 90% or more (almost completely withered)) | 5 (Herbicidal ratio of 90% or more (almost completely withered)) | 4 (Herbicidal ratio of 70% or higher and lower than 90%) | 5 (Herbicidal ratio of 90% or more (almost completely withered)) | 3 (Herbicidal ratio of 40% or higher and lower than 70%) | 3 (Herbicidal ratio of 40% or higher and lower than 70%) | 5 (Herbicidal ratio of 90% or more (almost completely withered)) | 4 (Herbicidal ratio of 70% or higher and lower than 90%) | 5 (Herbicidal ratio of 90% or more (almost completely withered)) | 5 (Herbicidal ratio of 90% or more (almost completely withered)) |  |  |  |  |  |  |  |  | 
CON=C(C)CC1CC(O)=C(c2c(C)cc(-c3cc(F)c(F)c(F)c3)cc2C)C1=O (centres unmarked) [6-104] | 5 (Herbicidal ratio of 90% or more (almost completely withered)) |  |  | 5 (Herbicidal ratio of 90% or more (almost completely withered)) | 5 (Herbicidal ratio of 90% or more (almost completely withered)) |  |  |  |  |  |  | 4 (Herbicidal ratio of 70% or higher and lower than 90%) | 5 (Herbicidal ratio of 90% or more (almost completely withered)) | 5 (Herbicidal ratio of 90% or more (almost completely withered)) | 5 (Herbicidal ratio of 90% or more (almost completely withered)) | 0 (Herbicidal ratio of 5% or lower (almost no effect)) | 5 (Herbicidal ratio of 90% or more (almost completely withered)) | 5 (Herbicidal ratio of 90% or more (almost completely withered)) | 5 (Herbicidal ratio of 90% or more (almost completely withered)) | 
CON=C(C)CC1CC(O)=C(c2c(C)cc(-c3ccsc3)cc2C)C1=O (centres unmarked) [6-106] | 5 (Herbicidal ratio of 90% or more (almost completely withered)) |  |  | 4 (Herbicidal ratio of 70% or higher and lower than 90%) | 5 (Herbicidal ratio of 90% or more (almost completely withered)) |  |  |  |  |  |  | 0 (Herbicidal ratio of 5% or lower (almost no effect)) | 3 (Herbicidal ratio of 40% or higher and lower than 70%) | 5 (Herbicidal ratio of 90% or more (almost completely withered)) | 0 (Herbicidal ratio of 5% or lower (almost no effect)) | 0 (Herbicidal ratio of 5% or lower (almost no effect)) | 5 (Herbicidal ratio of 90% or more (almost completely withered)) | 0 (Herbicidal ratio of 5% or lower (almost no effect)) | 3 (Herbicidal ratio of 40% or higher and lower than 70%) | 
CON=C(C)CC1CC(O)=C(c2c(F)cc(-c3ccccc3)cc2OC)C1=O (centres unmarked) [6-107] | 5 (Herbicidal ratio of 90% or more (almost completely withered)) |  |  | 5 (Herbicidal ratio of 90% or more (almost completely withered)) | 5 (Herbicidal ratio of 90% or more (almost completely withered)) |  |  |  |  |  |  | 1 (Herbicidal ratio of 5% or higher and lower than 20%) | 5 (Herbicidal ratio of 90% or more (almost completely withered)) | 5 (Herbicidal ratio of 90% or more (almost completely withered)) | 4 (Herbicidal ratio of 70% or higher and lower than 90%) | 0 (Herbicidal ratio of 5% or lower (almost no effect)) | 5 (Herbicidal ratio of 90% or more (almost completely withered)) | 2 (Herbicidal ratio of 20% or higher and lower than 40%) | 5 (Herbicidal ratio of 90% or more (almost completely withered)) | 
CON=C(C)CC1CC(O)=C(c2c(F)cc(C)cc2OC)C1=O (centres unmarked) [6-108] | 4 (Herbicidal ratio of 70% or higher and lower than 90%) |  |  | 2 (Herbicidal ratio of 20% or higher and lower than 40%) | 4 (Herbicidal ratio of 70% or higher and lower than 90%) |  |  |  |  |  |  | 0 (Herbicidal ratio of 5% or lower (almost no effect)) | 3 (Herbicidal ratio of 40% or higher and lower than 70%) | 5 (Herbicidal ratio of 90% or more (almost completely withered)) | 3 (Herbicidal ratio of 40% or higher and lower than 70%) | 0 (Herbicidal ratio of 5% or lower (almost no effect)) | 5 (Herbicidal ratio of 90% or more (almost completely withered)) | 5 (Herbicidal ratio of 90% or more (almost completely withered)) | 3 (Herbicidal ratio of 40% or higher and lower than 70%) | 
CC(=O)CC1CC(O)=C(c2c(C)cc(Oc3ccc(C(F)(F)F)cn3)cc2C)C1=O (centres unmarked) [7-019] | 1 (Herbicidal ratio of 5% or higher and lower than 20%) |  |  |  |  |  |  |  |  |  | 2 (Herbicidal ratio of 20% or higher and lower than 40%) | 0 (Herbicidal ratio of 5% or lower (almost no effect)) | 0 (Herbicidal ratio of 5% or lower (almost no effect)) | 2 (Herbicidal ratio of 20% or higher and lower than 40%) | 0 (Herbicidal ratio of 5% or lower (almost no effect)) | 0 (Herbicidal ratio of 5% or lower (almost no effect)) | 0 (Herbicidal ratio of 5% or lower (almost no effect)) | 0 (Herbicidal ratio of 5% or lower (almost no effect)) | 0 (Herbicidal ratio of 5% or lower (almost no effect)) | 
COc1cc(Br)cc(F)c1C1=C(O)CC(CC(C)=O)C1=O (centres unmarked) [7-029] | 2 (Herbicidal ratio of 20% or higher and lower than 40%) |  |  |  |  |  |  |  |  |  |  | 0 (Herbicidal ratio of 5% or lower (almost no effect)) | 2 (Herbicidal ratio of 20% or higher and lower than 40%) | 3 (Herbicidal ratio of 40% or higher and lower than 70%) | 0 (Herbicidal ratio of 5% or lower (almost no effect)) | 0 (Herbicidal ratio of 5% or lower (almost no effect)) | 2 (Herbicidal ratio of 20% or higher and lower than 40%) |  | 1 (Herbicidal ratio of 5% or higher and lower than 20%) | 0 (Herbicidal ratio of 5% or lower (almost no effect))
